Converted amounts (≈) assume the structure as drawn. Read-outs that look alike come from different tables or passages of the source.
How the values were obtained:
[1] = tested on: K. pneumoniae NVT1001 ΔramRΔompK35/36 mutant and its revertants; test: Etest MIC, ΔramRΔompK35/36 mutant and its revertants (Table 7); format: cell-based; conditions: Klebsiella pneumoniae
Text: The allelic-exchange method was used to restore the wild-type gene in the K. pneumoniae NVT1001 mutants with constructed chromosome-mediated resistance mechanisms, as described by Tsai et al.^19 Briefly, a DNA fragment of the entire wild-type gene sequence along with flanking regions was amplified from K. pneumoniae NVT1001 using PCR with specific primers. The resulting PCR fragment was digested and then cloned into pUT-KB. For homologous recombination, this plasmid was transformed into E. coli S17-1 λpir^23 via electroporation and mobilized into the K. pneumoniae NVT1001 mutant via conjugation. […] After incubation in 20 mL BHI broth for 6 hours at 37° C. in the absence of kanamycin, the fully grown cultures were spread onto LB agar plates supplemented with 10% sucrose. After the double crossover occurred, the sucrose-resistant and kanamycin-susceptible colonies were selected, and the restoration of the wild-type gene was confirmed via DNA sequencing.
(§1) The MICs of antibiotics were determined using the Etest (Biodisk AB, Sweden) according to the manufacturer's instructions. The MICs from the Etest, which fall between standard two-fold dilutions, were rounded up to the next highest two-fold value. The MICs of ceftazidime and cefotaxime against K. pneumoniae NVT1001 harbouring the pACYC177 plasmid with blaOXA-48 were further determined using a broth microdilution test according to the recommendations of the CLSI,^25 and the results were interpreted according to the breakpoints established by the CLSI in 2017.^25 Meanwhile, due to the lack of CLSI breakpoints in 2016 and 2017, the results for cephalothin were interpreted according to the breakpoints established by the CLSI in 2015,^26 and the results for moxifloxacin were interpreted according to the breakpoints established by the EUCAST in 2017.^27

[2] = tested on: K. pneumoniae NVT1001 strains with Sul/Dfr plasmids; test: Etest MIC of folate pathway inhibitors, OmpK35/36 loss, ΔramR and/or drug-resistant target enzyme (Table 15); format: cell-based, Klebsiella pneumoniae; conditions: for MIC: Klebsiella pneumoniae
Method: DNA fragments of the resistance genes along with their flanking regions were amplified from clinical plasmids via PCR with specific primer pairs. The resulting PCR fragments were digested and then cloned into the plasmid pACYC177 or pACYC184. The resulting plasmids were then transformed into K. pneumoniae strain NVT1001 via electroporation. The recombinant bacteria were plated onto LB agar plates containing kanamycin (50 mg/L) or chloramphenicol (50 mg/L), and the presence of the cloned gene was confirmed via PCR and DNA sequencing.
as §1

[3] = tested on: K. pneumoniae NVT1001 and its ΔompK35/36 and/or ΔramR mutants; test: Etest MIC, OmpK35/36 loss and AcrAB-TolC overexpression (ΔramR) strains (Table 6); format: cell-based, Klebsiella pneumoniae; conditions: Klebsiella pneumoniae
Method: as §1

[4] = ΔramRΔompK35/36::ompK35/36 revertant
[5] = ΔramRΔompK35/36::ompK35 revertant
[6] = ΔramRΔompK35/36::ompK36 revertant
[7] = ΔramRΔompK35/36::ramR revertant
[8] = ΔramRΔompK35/36::ramR::ompK35/36 revertant
[9] = ΔramRΔompK35/36::ramR::ompK35 revertant
[10] = ΔramRΔompK35/36::ramR::ompK36 revertant
[11] = ΔramRΔ35/36, ΔramRΔompK35/36 mutant

COc1cc(Cc2cnc(N)nc2N)cc(OC)c1OC [Trimethoprim]
MIC [1, 4]: 8 µg/mL | MIC [1, 5]: 8 µg/mL | MIC [1, 6]: 8 µg/mL | MIC [1, 7]: 2 µg/mL | MIC [1, 8]: 2 µg/mL | MIC [1, 9]: 2 µg/mL | MIC [1, 10]: 2 µg/mL | MIC ([1]; ΔramRΔompK35/36 mutant): > 32 µg/mL | MIC ([2]; DfrA1 on pACYC177, WT (NVT1001), read-out: MIC): > 32 µg/mL | MIC ([2]; DfrA1 on pACYC177, ΔompK35/36 mutant): > 32 µg/mL | MIC ([2]; DfrA1 on pACYC177, ΔompK35 mutant): > 32 µg/mL | MIC ([2]; DfrA1 on pACYC177, ΔompK36 mutant): > 32 µg/mL | MIC ([2]; DfrA1 on pACYC177, ΔramR mutant): > 32 µg/mL | MIC ([2]; DfrA1 on pACYC177, ΔramRΔompK35/36 mutant): > 32 µg/mL | MIC ([2]; DfrA1 on pACYC177, ΔramRΔompK35 mutant): > 32 µg/mL | MIC ([2]; DfrA1 on pACYC177, ΔramRΔompK36 mutant): > 32 µg/mL | MIC ([2]; DfrA16 on pACYC177, WT (NVT1001), read-out: MIC): > 32 µg/mL | MIC ([2]; DfrA16 on pACYC177, ΔompK35/36 mutant): > 32 µg/mL | MIC ([2]; DfrA16 on pACYC177, ΔompK35 mutant): > 32 µg/mL | MIC ([2]; DfrA16 on pACYC177, ΔompK36 mutant): > 32 µg/mL | MIC ([2]; DfrA16 on pACYC177, ΔramR mutant): > 32 µg/mL | MIC ([2]; DfrA16 on pACYC177, ΔramRΔompK35/36 mutant): > 32 µg/mL | MIC ([2]; DfrA16 on pACYC177, ΔramRΔompK35 mutant): > 32 µg/mL | MIC ([2]; DfrA16 on pACYC177, ΔramRΔompK36 mutant): > 32 µg/mL | MIC ([2]; Sul1 on pACYC177, WT (NVT1001), read-out: MIC): 2 µg/mL | MIC ([2]; Sul1 on pACYC177, ΔompK35/36 mutant): 4 µg/mL | MIC ([2]; Sul1 on pACYC177, ΔompK35 mutant): 2 µg/mL | MIC ([2]; Sul1 on pACYC177, ΔompK36 mutant): 2 µg/mL | MIC ([2]; Sul1 on pACYC177, ΔramR mutant): 16 µg/mL | MIC ([2]; Sul1 on pACYC177, ΔramRΔompK35/36 mutant): > 32 µg/mL | MIC ([2]; Sul1 on pACYC177, ΔramRΔompK35 mutant): 32 µg/mL | MIC ([2]; Sul1 on pACYC177, ΔramRΔompK36 mutant): > 32 µg/mL | MIC ([2]; Sul2 on pACYC177, WT (NVT1001), read-out: MIC): 2 µg/mL | MIC ([2]; Sul2 on pACYC177, ΔompK35/36 mutant): 4 µg/mL | MIC ([2]; Sul2 on pACYC177, ΔompK35 mutant): 4 µg/mL | MIC ([2]; Sul2 on pACYC177, ΔompK36 mutant): 4 µg/mL | MIC ([2]; Sul2 on pACYC177, ΔramR mutant): 16 µg/mL | MIC ([2]; Sul2 on pACYC177, ΔramRΔompK35/36 mutant): > 32 µg/mL | MIC ([2]; Sul2 on pACYC177, ΔramRΔompK35 mutant): 32 µg/mL | MIC ([2]; Sul2 on pACYC177, ΔramRΔompK36 mutant): 32 µg/mL | MIC ([2]; no supplemental plasmid, WT (NVT1001), read-out: MIC): 2 µg/mL | MIC ([2]; no supplemental plasmid, ΔompK35/36 mutant): 2 µg/mL | MIC ([2]; no supplemental plasmid, ΔompK35 mutant): 2 µg/mL | MIC ([2]; no supplemental plasmid, ΔompK36 mutant): 2 µg/mL | MIC ([2]; no supplemental plasmid, ΔramR mutant): 8 µg/mL | MIC ([2]; no supplemental plasmid, ΔramRΔompK35/36 mutant): > 32 µg/mL | MIC ([2]; no supplemental plasmid, ΔramRΔompK35 mutant): 8 µg/mL | MIC ([2]; no supplemental plasmid, ΔramRΔompK36 mutant): 16 µg/mL | effects on the MIC ([2]; strains with porin loss and/or Sul production): no significant (≥4-fold) effects | MIC ([3]; WT, NVT1001, read-out: MIC): 2 µg/mL (≈ 6.89 µM) | MIC ([3]; Δ35, ΔompK35 mutant): 2 µg/mL (≈ 6.89 µM) | MIC ([3]; Δ35/36, ΔompK35/36 mutant): 2 µg/mL (≈ 6.89 µM) | MIC ([3]; Δ36, ΔompK36 mutant): 2 µg/mL (≈ 6.89 µM) | MIC ([3]; ΔramR mutant): 8 µg/mL (≈ 27.6 µM) | MIC ([3]; ΔramRΔ35, ΔramRΔompK35 mutant): 8 µg/mL (≈ 27.6 µM) | MIC [3, 11]: > 32 µg/mL | MIC ([3]; ΔramRΔ36, ΔramRΔompK36 mutant): 16 µg/mL (≈ 55.1 µM)

O=C(N[C@H](CO)[C@H](O)c1ccc([N+](=O)[O-])cc1)C(Cl)Cl [Chloramphenicol]
MIC [1, 4]: 64 µg/mL | MIC [1, 5]: 128 µg/mL | MIC [1, 6]: 64 µg/mL | MIC [1, 7]: 8 µg/mL | MIC [1, 8]: 4 µg/mL | MIC [1, 9]: 4 µg/mL | MIC [1, 10]: 8 µg/mL | MIC ([1]; ΔramRΔompK35/36 mutant): 128 µg/mL | MIC ([3]; WT, NVT1001): 8 µg/mL (≈ 24.8 µM) | MIC ([3]; Δ35, ΔompK35 mutant): 8 µg/mL (≈ 24.8 µM) | MIC ([3]; Δ35/36, ΔompK35/36 mutant): 8 µg/mL (≈ 24.8 µM) | MIC ([3]; Δ36, ΔompK36 mutant): 8 µg/mL (≈ 24.8 µM) | MIC ([3]; ΔramR mutant): 128 µg/mL (≈ 396 µM) | MIC ([3]; ΔramRΔ35, ΔramRΔompK35 mutant): 128 µg/mL (≈ 396 µM) | MIC [3, 11]: 128 µg/mL (≈ 396 µM) | MIC ([3]; ΔramRΔ36, ΔramRΔompK36 mutant): 128 µg/mL (≈ 396 µM)

NC[C@H]1O[C@H](O[C@H]2[C@H](O)[C@@H](O[C@H]3O[C@H](CO)[C@@H](O)[C@H](N)[C@H]3O)[C@H](N)C[C@@H]2N)[C@H](O)[C@@H](O)[C@@H]1O [Kanamycin]
MIC ([3]; WT, NVT1001, read-out: MIC): 2 µg/mL (≈ 4.13 µM) | MIC ([3]; Δ35, ΔompK35 mutant): 2 µg/mL (≈ 4.13 µM) | MIC ([3]; Δ35/36, ΔompK35/36 mutant): 4 µg/mL (≈ 8.26 µM) | MIC ([3]; Δ36, ΔompK36 mutant): 2 µg/mL (≈ 4.13 µM) | MIC ([3]; ΔramR mutant): 2 µg/mL (≈ 4.13 µM) | MIC ([3]; ΔramRΔ35, ΔramRΔompK35 mutant): 2 µg/mL (≈ 4.13 µM) | MIC [3, 11]: 2 µg/mL (≈ 4.13 µM) | MIC ([3]; ΔramRΔ36, ΔramRΔompK36 mutant): 2 µg/mL (≈ 4.13 µM)

NC[C@H]1O[C@H](O[C@H]2[C@H](O)[C@@H](O[C@H]3O[C@H](CO)[C@@H](O)[C@H](N)[C@H]3O)[C@H](N)C[C@@H]2N)[C@H](N)C[C@@H]1O [Tobramycin]
MIC ([3]; WT, NVT1001, read-out: MIC): 0.5 µg/mL (≈ 1.07 µM) | MIC ([3]; Δ35, ΔompK35 mutant): 0.5 µg/mL (≈ 1.07 µM) | MIC ([3]; Δ35/36, ΔompK35/36 mutant): 0.5 µg/mL (≈ 1.07 µM) | MIC ([3]; Δ36, ΔompK36 mutant): 0.5 µg/mL (≈ 1.07 µM) | MIC ([3]; ΔramR mutant): 0.5 µg/mL (≈ 1.07 µM) | MIC ([3]; ΔramRΔ35, ΔramRΔompK35 mutant): 0.5 µg/mL (≈ 1.07 µM) | MIC [3, 11]: 1 µg/mL (≈ 2.14 µM) | MIC ([3]; ΔramRΔ36, ΔramRΔompK36 mutant): 0.5 µg/mL (≈ 1.07 µM)

Source: patent publication US10760110B2, “Antibiotic testing and screening system” (priority 2017, dated 2020)
